Test results published in article PMC6567057, “Pharmacokinetic, metabolic stability, plasma protein binding and CYP450s inhibition/induction assessment studies of N-(2-pyridylmethyl)-2-hydroxiymethyl-1-pyrrolidinyl-4-(3-chloro-4-methoxy-benzylamino)-5-pyrimidine-carboxamide as potential type 5 phosphodiesterase inhibitors” (Animal Cells and Systems, 2019).

How the values were obtained:
Format in all cases: in vitro ADME
human plasma proteins = assay: Plasma protein binding by equilibrium dialysis (human); settings: human plasma, mean of 0.2 and 1 µM
Description: (§1) The phosphate buffer (100 mM) and sodium hydroxide solution (1.0 M) were prepared in deionized water. […] PPB was determined by equilibrium dialysis method. An aliquot (150 μL) of NHPPC spiked plasma and phosphate buffer (pH 7.4) was added into the donor side and the receiver side of each designated well. The plate was covered with adhesive sealing film to prevent evaporation and placed in a water-bath shaker kept at 37°C for 6 h with a rate of 50 rpm. […] At the end of 6 h, aliquots were taken from each side of each well (n = 3) and kept in a −20°C freezer prior to analysis. The stability, device recovery and PPB were calculated using the following equations: Remaining at 6 h (%)=C6h/C0h×100%, Device recovery (%)=CDonor+CReceiver/C6h×100%, PPB (%)=CDonor−CReceiver/CDonor×100%.

[1] = as above
Description: as §1

[2] = Stability in plasma, 6 h incubation at 37°C (rat); settings: Sprague-Dawley
Description: as §1

[3] = In vitro metabolic stability in rat liver microsomes; settings: for remaining at 1 h, 1 µM: liver microsomes, pH 7.4, rat liver microsomes, 60 min, read-out: percent remaining
Description: (§2) The phosphate buffer (pH 7.4, 100 mM) and (300 mM) were prepared in deionized water. NADP and IA were dissolved in phosphate buffer and MgCl2 solution and then added 20 μL IDH (18 units/mg protein) and mixed. NHPPC (1 mM) and positive control drug were prepared by dilution using DMSO and then the NHPPC and positive control drug working solution (50 μM) were obtained by dilution using methanol: H2O (1:1, v/v) mixture. Pooled human, rat and dog liver microsomes were added to phosphate buffer pH7.4 to a concentration 20 mg/mL. NHPPC was incubated with liver microsomes. The incubation solution of the final reaction conditions contained 50 mM potassium phosphate buffer (pH 7.4), 0.5 mg protein/mL microsomes, 3 mM MgCl2, 2 mM NADPH and 1 μM NHPPC or positive control drug in a final volume of 100 μL. In sample and positive control groups, NADPH was added into the incubation solutions. In the negative control group, water (the replacement of NADPH) was added into the incubation solutions. Samples were incubated aerobically in a shaking water bath at 37°C and the reaction was terminated by adding 300 μL of ice cold acetonitrile (contain 100 ng/mL IS) at different interval 0, 5, 10, 20, 30 and 60 min. While positive control and negative control were incubated aerobically in a shaking water bath at 37°C for 0 and 60 min, respectively. NHPPC and control concentrations were determined by LC-MS/MS at each time point (n = 3). Calculation of t1/2 and CLint was performed by using following equations, where K is the elimination rate constant (min^−1) and QH is hepatic blood flow (mL/min/kg). t1/2=0.693/KCLint,in vitro=VD×KVD=Volume of reaction mixture(mL)/mg of protein per reation.
(§3) Hepatic intrinsic clearance was estimated by using the scaling factors and calculated by using the following equation (Lave et al. [1997]). CLint,in vivo=CLint×mg microsomal protein per liver×g liver per kg body weight, Cint,H=CLint,in vivo×QH/CLint,in vivo+QH,EH=CLint,H/QH.

[4] = In vitro metabolic stability in human liver microsomes; settings: for remaining at 1 h, 1 µM: liver microsomes, pH 7.4, human liver microsomes, 60 min, read-out: percent remaining
Description: as §2, §3

[5] = Stability in plasma, 6 h incubation at 37°C (human)
Description: as §1

[6] = 0.2 µM, n = 3, read-out: Mean drug remaining %
[7] = 1 µM, n = 3, read-out: Mean drug remaining %
[8] = mean of 0.2 and 1 µM, read-out: Mean drug remaining %

COc1ccc(CNc2nc(N3CCC[C@H]3CO)ncc2C(=O)NCc2ccccn2)cc1Cl [NHPPC, N-(2-pyridylmethyl)-2-hydroxiymethyl-1-pyrrolidinyl-4-(3-chloro-4-methoxy-benzylamino)-5-pyrimidine-carboxamide]
Mean PPB % (human plasma proteins): 99.4 ± 0.13%
fraction unbound at 6 h, 0.2 µM ([1]; human, plasma, pH 7.4, human plasma, 0.2 µM, equilibrium dialysis 6 h, read-out: Mean PPB % (converted)): 0.007
fraction unbound at 6 h, 1 µM ([1]; human, plasma, pH 7.4, human plasma, 1 µM, equilibrium dialysis 6 h, read-out: Mean PPB % (converted)): 0.005
recovery at 6 h, 0.2 μM ([1]; pH 7.4, human plasma, equilibrium dialysis, n = 3, read-out: Mean device recovery %): 101.2 ± 0.02%
remaining at 6 h, 0.2 µM [2, 6]: 100 ± 1.93%
remaining at 6 h, 1 µM [2, 7]: 102 ± 1.26%
remaining at 6 h [2, 8]: 101 ± 1.01%
half-life at 1 µM ([3]; pH 7.4, rat liver microsomes): 42.5 min
microsomal CLint at 1 µM ([3]; pH 7.4, rat liver microsomes, read-out: CLint, ivtro): 23.3 µL/min/mg
k el at 1 µM ([3]; pH 7.4, rat liver microsomes, read-out: Ke (converted)): 0.000272 s⁻¹
remaining at 1 h, 1 µM ([3]; rat, in the presence of NADPH, 1 μM): 42.8%
remaining at 1 h, 1 µM ([3]; rat, without NADPH regenerating system): 102%
ranking for clearance ([3]; rat, ranking criteria of Houston 1994, Kerns and Di 2008): middle clearance
CLH ([3]; rat, scaled from liver microsomes): 27.5 mL/min/kg
remaining at 1 h, 1 µM ([4]; human, in the presence of NADPH, 1 μM): 42%
remaining at 1 h, 1 µM ([4]; human, without NADPH regenerating system): 99.4%
ranking for clearance ([4]; human, ranking criteria of Houston 1994, Kerns and Di 2008): middle clearance
CLH ([4]; human, scaled from liver microsomes): 9.80 mL/min/kg
half-life at 1 µM ([4]; liver microsomes (pooled), pH 7.4, human liver microsomes): 46.2 min
microsomal CLint at 1 µM ([4]; liver microsomes (pooled), pH 7.4, human liver microsomes, read-out: CLint, ivtro): 21.4 µL/min/mg
k el at 1 µM ([4]; liver microsomes (pooled), pH 7.4, human liver microsomes, read-out: Ke (converted)): 0.00025 s⁻¹
remaining at 6 h, 0.2 µM [5, 6]: 99.8 ± 1.37%
remaining at 6 h, 1 µM [5, 7]: 102 ± 1.5%
remaining at 6 h [5, 8]: 101 ± 1.23%
